Molecules are shown by their SMILES. Where only a bound is given, the exact number is not on record here.

For the assay, the target named is T1, human vasopressin V1b receptor (Homo sapiens, UniProt P47901).
T1 sequence (P47901 1-424): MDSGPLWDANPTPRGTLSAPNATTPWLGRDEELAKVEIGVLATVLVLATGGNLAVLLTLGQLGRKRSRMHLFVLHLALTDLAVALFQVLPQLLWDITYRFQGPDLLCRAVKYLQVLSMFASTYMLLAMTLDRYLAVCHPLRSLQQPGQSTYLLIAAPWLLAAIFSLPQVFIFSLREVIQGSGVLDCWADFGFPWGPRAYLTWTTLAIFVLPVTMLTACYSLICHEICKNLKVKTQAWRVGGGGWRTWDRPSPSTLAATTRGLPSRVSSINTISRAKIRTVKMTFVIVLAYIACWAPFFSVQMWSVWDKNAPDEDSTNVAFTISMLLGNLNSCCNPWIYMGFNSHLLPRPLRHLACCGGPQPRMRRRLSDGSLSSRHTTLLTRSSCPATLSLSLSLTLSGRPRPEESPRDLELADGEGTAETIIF
The experiment in a line: biochemical.

Consider `CCOc1ncccc1[C@]1(NC(=O)N2CCN(C3CCN(C4COC4)CC3)CC2)C(=O)N(S(=O)(=O)c2ccc(OC)cc2OC)c2cc(F)c(F)cc21` [Example 9, (S)—N-(1-((2,4-dimethoxyphenyl)sulfonyl)-3-(2-ethoxypyridin-3-yl)-5,6-difluoro-2-oxoindolin-3-yl)-4-(1-(oxetan-3-yl)piperidin-4-yl)piperazine-1-carboxamide], for which the Ki (commonly the equilibrium dissociation constant of an inhibitor or competing ligand from its target) fell in the range of 1 to 10 nM. `CCOc1ncccc1[C@]1(NC(=O)N2CCN(C3CCN(C4COC4)CC3)CC2)C(=O)N(S(=O)(=O)c2ccc(C#N)cc2)c2ccc(C#N)cc21` [Example 5, (S)—N-(5-cyano-1-((4-cyanophenyl)sulfonyl)-3-(2-ethoxypyridin-3-yl)-2-oxoindolin-3-yl)-4-(1-(oxetan-3-yl)piperidin-4-yl)piperazine-1-carboxamide] displayed a Ki of 1 to 10 nM. In turn, `CCOc1ncccc1[C@]1(NC(=O)N2CCN(C3CCN(C4COC4)CC3)CC2)C(=O)N(S(=O)(=O)c2ccc(OC)c(C)c2C)c2ccc(C#N)cc21` [Example 18, (S)—N-(5-cyano-3-(2-ethoxypyridin-3-yl)-1-((4-methoxy-2,3-dimethylphenyl)sulfonyl)-2-oxoindolin-3-yl)-4-(1-(oxetan-3-yl)piperidin-4-yl)piperazine-1-carboxamide] returned a Ki of 10 to 100 nM.

As to `CCOc1ncccc1[C@]1(NC(=O)N2CCC(N3CCN(C4COC4)CC3)CC2)C(=O)N(S(=O)(=O)c2ccc(OC)cc2OC)c2ccc(Cl)cc21` [Example 14, (S)—N-(5-chloro-1-((2,4-dimethoxyphenyl)sulfonyl)-3-(2-ethoxypyridin-3-yl)-2-oxoindolin-3-yl)-4-(4-(oxetan-3-yl)piperazin-1-yl)piperidine-1-carboxamide], the Ki fell in the range of 1 to 10 nM. Next, `CCOc1ncccc1[C@]1(NC(=O)N2CCN(C3CCN(C4COC4)CC3)CC2)C(=O)N(S(=O)(=O)c2ccc(OC)cc2OC)c2ccc(Cl)cc21` [Example 10, (S)—N-(5-chloro-1-((2,4-dimethoxyphenyl)sulfonyl)-3-(2-ethoxypyridin-3-yl)-2-oxoindolin-3-yl)-4-(1-(oxetan-3-yl)piperidin-4-yl)piperazine-1-carboxamide]: below 1 nM. Molecule `CCOc1ncccc1[C@]1(NC(=O)N2CCN(C3CCN(C4COC4)CC3)CC2)C(=O)N(S(=O)(=O)c2ccc(OC)cc2OC)c2ccc(C#N)cc21` [Example 1, (S)—N-(5-cyano-1-((2,4-dimethoxyphenyl)sulfonyl)-3-(2-ethoxypyridin-3-yl)-2-oxoindolin-3-yl)-4-(1-(oxetan-3-yl)piperidin-4-yl)piperazine-1-carboxamide] had a Ki below 1 nM. `CCOc1ncccc1[C@]1(NC(=O)N2CCN(C3CCN(C4COC4)CC3)CC2)C(=O)N(S(=O)(=O)c2ccc(OC)cc2F)c2ccc(C#N)cc21` [Example 6, (S)—N-(5-cyano-3-(2-ethoxypyridin-3-yl)-1-((2-fluoro-4-methoxyphenyl)sulfonyl)-2-oxoindolin-3-yl)-4-(1-(oxetan-3-yl)piperidin-4-yl)piperazine-1-carboxamide] showed a Ki of 1 to 10 nM. Consider `CCOc1ncccc1[C@]1(NC(=O)N2CCN(C3CCN(C4COC4)CC3)CC2)C(=O)N(S(=O)(=O)c2cc(F)c(OC)cc2OC)c2ccc(C#N)cc21` [Example 8, (S)—N-(5-cyano-3-(2-ethoxypyridin-3-yl)-1-((5-fluoro-2,4-dimethoxyphenyl)sulfonyl)-2-oxoindolin-3-yl)-4-(1-(oxetan-3-yl)piperidin-4-yl)piperazine-1-carboxamide], for which the Ki was in the range of 1 to 10 nM. Next, `CCOc1ncccc1[C@]1(NC(=O)N2CCC(N3CCN(C4COC4)CC3)CC2)C(=O)N(S(=O)(=O)c2ccc(C#N)cc2)c2ccc(C#N)cc21` [Example 12, (S)—N-(5-cyano-1-((4-cyanophenyl)sulfonyl)-3-(2-ethoxypyridin-3-yl)-2-oxoindolin-3-yl)-4-(4-(oxetan-3-yl)piperazin-1-yl)piperidine-1-carboxamide]: 10 to 100 nM; `CCOc1ncccc1C1(NC(=O)N2CCN(C3CCN(C4COC4)CC3)CC2)C(=O)N(S(=O)(=O)c2ccc(OC)cc2)c2ccc(C#N)cc21` (centres unmarked) [Example 3, N-(5-cyano-3-(2-ethoxypyridin-3-yl)-1-((4-methoxyphenyl)sulfonyl)-2-oxoindolin-3-yl)-4-(1-(oxetan-3-yl)piperidin-4-yl)piperazine-1-carboxamide]: 1 to 10 nM. `CCOc1ncccc1C1(NC(=O)N2CCN(C3CCN(C4COC4)CC3)CC2)C(=O)N(S(=O)(=O)c2ccccc2)c2ccc(C#N)cc21` (centres unmarked) [Example 4, N-(5-cyano-3-(2-ethoxypyridin-3-yl)-2-oxo-1-(phenylsulfonyl)indolin-3-yl)-4-(1-(oxetan-3-yl)piperidin-4-yl)piperazine-1-carboxamide] had a Ki of 10 to 100 nM. The same measure for `CCOc1ncccc1[C@]1(NC(=O)N2CCC(N3CCN(C4COC4)CC3)CC2)C(=O)N(S(=O)(=O)c2ccc(OC)cc2)c2ccc(C#N)cc21` [Example 13, (S)—N-(5-cyano-3-(2-ethoxypyridin-3-yl)-1-((4-methoxyphenyl)sulfonyl)-2-oxoindolin-3-yl)-4-(4-(oxetan-3-yl)piperazin-1-yl)piperidine-1-carboxamide]: 10 to 100 nM; for `COc1ccc(S(=O)(=O)N2C(=O)C(NC(=O)N3CCN(C4CCN(C5COC5)CC4)CC3)(c3cccnc3OC)c3cc(C#N)ccc32)c(OC)c1` (centres unmarked) [Example 15, N-(5-cyano-1-((2,4-dimethoxyphenyl)sulfonyl)-3-(2-methoxypyridin-3-yl)-2-oxoindolin-3-yl)-4-(1-(oxetan-3-yl)piperidin-4-yl)piperazine-1-carboxamide]: 1 to 10 nM. Consider `CCOc1ncccc1[C@]1(NC(=O)N2CCC(N3C[C@@H]4C[C@H]3CN4C3COC3)CC2)C(=O)N(S(=O)(=O)c2ccc(OC)cc2OC)c2ccc(C#N)cc21` [Example 17, N—((S)-5-cyano-1-((2,4-dimethoxyphenyl)sulfonyl)-3-(2-ethoxypyridin-3-yl)-2-oxoindolin-3-yl)-4-((1S,4S)-5-(oxetan-3-yl)-2,5-diazabicyclo[2.2.1]heptan-2-yl)piperidine-1-carboxamide], for which the Ki lay within 10 to 100 nM.

For the origin of these results see patent publication US9273036B2, “Oxindole derivatives carrying an oxetane substituent and use thereof for treating vasopressine-related diseases” (AbbVie Deutschland GmbH & Co. KG, priority 2013, dated 2016).
